1 molecule from US6774143B1, “Method for treating cells resistant to antineoplastic agents” (Novartis AG, priority 2003, dated 2004) can be followed below.

By IC50 is commonly meant the concentration at which inhibition is half-maximal.

The test system of test [1] is 1A9PTX22 cells (β-tubulin mutation). As to the kind of experiment: In vitro cytotoxicity assay (MTT). Type of test: cell-based, human. The procedure:
(§1) 1A9 and 1A9PTX22 cells are plated in 96-well plates at 5×10^4 cells/well, plced in a tissue culture incubator and allowed to attach overnight. The next morning, the number of viable cells in the “time 0” plate (3 wells for each cell line) is determined using an MTT assay (Alley M C, et al., Cancer Res. 1988, 48:589-601).
(§2) At the same time drugs are added in serial, 10-fold dilutions, to the experimental plates. Corresponding vehicles are added to control plates. Experimental and control plates are then incubated in the tissue culture incubator for 72 hours. After the incubation the number of viable cells is determined in each plate using the MTT assay. IC50s (defined as a concentration of a given compound causing 50% inhibition of cell growth) are determined by comparing cell growth in the drug-treated plate (T−T0) to the cell growth in the corresponding control plate (C−T0). For each experiment results are calculated using average numbers from two sets of plates.
(§3) Discodermolide is isolated from the sponge Discodermia dissoluta using the method of Gunasekera SP (supra). Multiple batches of compound of similar purity (all>95% pure, as determined by mass spectrometry, and nuclear magnetic resonance analysis) are used throughout the various studies. For the in vitro cytotoxicity assays all compounds are dissolved in DMSO and are added to the plates with cells to obtain desired concentrations. […] Paclitaxel is purchased from Sigma/Aldrich, (St. Louis, Mo.). For the in vivo hollow fiber assay, solid discodermolide is dissolved in pure ethanol to create a stock solution which is diluted just before dosing with Cremophor EL and D5W to a final concentration of 16.7% Cremophor EL, 8.3% ethanol and 75% D5W. The compound is administered to mice as a single, 15 mg/kg iv injection. Positive control animals receive clinical formulations of paclitaxel (TAXOL) diluted 4-fold with D5W (12.5% Cremophor El, 12.5% ethanol and 75% D5W final concentrations) and administered iv, at 15 mg/kg, once daily for five consecutive days. Vehicle controls are administered according to the corresponding drug schedules.

Test [2] has as its system 1A9 cells. As to the kind of experiment: In vitro cytotoxicity assay (MTT). The test is classed as cell-based. The note with it: Homo sapiens, 1A9, 1A9 cells; cytotoxic control; experiment not specified; read-out: IC50. The procedure:
as §1, §2, §3

Each structure is given as a SMILES string. Values after ≈ are worked out from the molar mass of the structure shown.

`COc1cccc2c1C(=O)c1c(O)c3c(c(O)c1C2=O)C[C@@](O)(C(=O)CO)C[C@@H]3O[C@H]1C[C@H](N)[C@H](O)[C@H](C)O1` [Doxorubicin]: the IC50 in test [1] (Homo sapiens, 1A9/ptx-22, 1A9PTX22 cells, cytotoxic control, experiment not specified, read-out: IC50) was 3 to 5 ng/mL (≈ 5.52 to 9.2 nM); in test [2] it was 3 ng/mL (≈ 5.52 nM). The “fold resistance of 1A9PTX22 versus parental 1A9” value in test [1] (from IC50s of the two in vitro experiments) turned out to be 2 fold.
